The record followed here is US9371265B2, “Compositions and methods related to inhibitors of JAK kinase” (EP PHARMA, INC., priority 2012, dated 2016).

Assay [1] concerns the target PIK3CA (Homo sapiens, UniProt P42336). The assay is described as follows: Kinase panel: PIK3CA. The assay is classed as biochemical. Particulars: 10 μM EP009. The method, then: (§1) Achieving JAK3 selectivity remains a significant challenge in the development of new small molecules for the treatment of cancer and immune-derived diseases. As such, the inventors employed cell-based screening assays of small-molecule libraries based upon the chemical scaffold of the established JAK3 inhibitor NC1153 (Stepkowski et al., J Immunol. (2005), 175(7):4236-4246) EP009 (FIG. 2A) was selected as a lead compound due to improved intrinsic stability (>95% purity in various solvents at 37° C. for 24 hours; FIG. 3) and high-degree of JAK3 selectivity. To test JAK3 versus JAK2 specificity of EP009, the IL-2/JAK3-dependent Kit225, and IL-3/JAK2-dependent BaF/3 cell lines were used. Kit225 and BaF/3 cells growing in the presence of IL-2 or IL-3, respectively, were treated with ascending concentrations of EP009 for 12 hours and cellular JAK3 and JAK2 tyrosine phosphorylation levels detected by Western blot analysis (FIGS. 2B and 2C). Following densitometric analysis, EP009 was determined to dose-dependently reduce IL-2-mediated JAK3 tyrosine phosphorylation with a cellular 50% inhibitory concentration (IC50) between 10 and 20 μM (FIG. 2B). […] To globally evaluate specificity, the inhibitory activity of EP009 was measured against a panel of protein kinases distributed throughout the kinome using the scanEDGE profiling service (KINOMEscan). […]

In assay [2] the target is ERBB2 (Homo sapiens, UniProt P04626). In words: Kinase panel: ERBB2. In kind it is biochemical. Particulars: 10 μM EP009. How it is done: as §1
Assay [3] addresses PIK3CG (Homo sapiens, UniProt P48736). The assay is described as follows: Kinase panel: PIK3CG. The assay is classed as biochemical. The settings on record: 10 μM EP009. How it is done:
as §1

Assay [4] deals with PDGFRA (Homo sapiens, UniProt P16234). The assay is described as follows: Kinase panel: PDGFRA. The assay is classed as biochemical. The settings on record: 10 μM EP009. How it is done: as §1
Assay [5] has as its system panel of protein kinases. In words: Protein kinase panel profiling (whole panel). The assay is classed as biochemical. Particulars: 10 μM EP009. The method, then: as §1
Assay [6] deals with FGFR3 (Homo sapiens, UniProt P22607). In words: Kinase panel: FGFR3. The assay is classed as biochemical. The settings on record: 10 μM EP009. How it is done:
as §1

For assay [7], the system named is IκBα. The assay is described as follows: Phospho-IκBα in SU-DHL-1 cells (Luminex multiplex). In kind it is cell-based, human. Particulars: 24 hours. The method, then:
FIGS. 8A-8F. Effect of EP009 on ALCL cells is mediated through selective activation of ERK1/2 and JNK1/2 stress signaling pathways, and inhibition of p70 S6 kinase growth signaling pathways. SU-DHL-1 cells were treated with vehicle (PBS) or increasing amounts of EP009 (0-50 μM) for 24 hours. Cells were then lysed, clarified, and subjected to Luminex multiplex analysis to detect phosphorylated (A) ERK1/2, (B) JNK1/2, (C) p70 S6 kinase, (D) IκBα, (E) CREB, and (F) p38. Values represent mean fluorescence intensity (MFI) normalized to corresponding GAPDH MFI, while error bars represent the standard deviation (n=2). Representative data from two independent experiments are shown. Statistical significance was determined using Student's t-test. (*, p<0.05).
The MILLIPLEX MAP 8-plex Multi-Pathway Signaling Phosphoprotein kit (Millipore) was used to detect phosphorylated ERK1/2 (Thr185/Tyr187), STAT3 (Ser727), JNK1/2 (Thr183/Tyr185), p70 S6 kinase (Thr412), IκBα (Ser32), STAT5A/B (Tyr694/699), CREB (Ser133), and p38 (Thr180/Tyr182). The MILLIPLEX MAP 5-plex STAT Phosphoprotein kit (Millipore) was used to detect phosphorylated STAT1 (Tyr701), STAT2 (Tyr690), STAT3 (Tyr705), STAT5A/B (Tyr694/699), and STAT6 (Tyr641). The MILLIPLEX MAP Human Apoptosis 3-plex kit (Millipore) was used to detect cleaved PARP, cleaved Caspase 3, and total GAPDH for protein normalization.

Assay [8] concerns the target FAK (Homo sapiens, UniProt Q05397). In words: Kinase panel: FAK. In kind it is biochemical. Particulars: 10 μM EP009. How it is done:
as §1

For assay [9], the target named is TIE2 (Homo sapiens, UniProt Q02763). In words: Kinase panel: TIE2. In kind it is biochemical. Particulars: 10 μM EP009. The method, then: as §1
Assay [10] concerns the target TGFBR1 (Homo sapiens, UniProt P36897). In words: Kinase panel: TGFBR1. The settings on record: 10 μM EP009. The assay is classed as biochemical. The method, then: as §1
The target in assay [11] is PIM2 (Homo sapiens, UniProt Q9P1W9). In words: Kinase panel: PIM2. The assay is classed as biochemical. Particulars: 10 μM EP009. How it is done:
as §1

The target in assay [12] is GSK3B (Homo sapiens, UniProt P49841). The assay is described as follows: Kinase panel: GSK3B. Particulars: 10 μM EP009. In kind it is biochemical. How it is done:
as §1

Assay [13] has as its target ZAP70 (Homo sapiens, UniProt P43403). In words: Kinase panel: ZAP70. In kind it is biochemical. The settings on record: 10 μM EP009. How it is done:
as §1

Bounds are passed on as bounds.

Sequence of PIK3CG (P48736 whole entry): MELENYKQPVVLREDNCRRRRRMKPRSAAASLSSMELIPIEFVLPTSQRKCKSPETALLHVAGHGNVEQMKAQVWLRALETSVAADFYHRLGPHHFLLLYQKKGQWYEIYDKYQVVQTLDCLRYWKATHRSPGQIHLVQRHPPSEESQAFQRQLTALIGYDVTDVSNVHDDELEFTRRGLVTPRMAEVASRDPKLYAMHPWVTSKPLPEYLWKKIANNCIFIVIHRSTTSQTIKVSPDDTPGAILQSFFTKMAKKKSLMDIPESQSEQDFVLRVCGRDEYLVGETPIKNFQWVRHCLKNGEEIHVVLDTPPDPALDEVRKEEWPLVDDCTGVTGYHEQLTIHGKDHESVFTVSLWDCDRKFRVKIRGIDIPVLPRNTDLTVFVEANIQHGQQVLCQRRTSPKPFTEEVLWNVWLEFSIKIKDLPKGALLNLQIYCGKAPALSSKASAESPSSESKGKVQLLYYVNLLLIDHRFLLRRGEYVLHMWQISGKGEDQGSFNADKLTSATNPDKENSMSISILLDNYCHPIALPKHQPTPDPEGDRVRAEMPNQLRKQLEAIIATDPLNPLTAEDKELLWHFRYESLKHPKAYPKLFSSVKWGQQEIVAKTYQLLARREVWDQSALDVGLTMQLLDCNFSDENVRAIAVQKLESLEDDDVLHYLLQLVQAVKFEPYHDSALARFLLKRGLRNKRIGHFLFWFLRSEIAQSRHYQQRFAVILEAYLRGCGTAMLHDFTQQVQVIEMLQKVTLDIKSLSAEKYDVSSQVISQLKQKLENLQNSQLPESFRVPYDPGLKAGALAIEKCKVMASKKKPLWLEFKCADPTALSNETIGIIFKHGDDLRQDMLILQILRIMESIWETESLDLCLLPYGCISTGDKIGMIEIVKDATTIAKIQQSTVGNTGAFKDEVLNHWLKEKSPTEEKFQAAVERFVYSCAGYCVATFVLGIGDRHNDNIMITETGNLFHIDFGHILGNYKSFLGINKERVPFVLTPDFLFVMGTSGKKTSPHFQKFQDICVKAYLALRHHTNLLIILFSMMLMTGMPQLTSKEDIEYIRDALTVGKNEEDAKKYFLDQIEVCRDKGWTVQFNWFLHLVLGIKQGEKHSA
Sequence of FGFR3 (P22607 23-806): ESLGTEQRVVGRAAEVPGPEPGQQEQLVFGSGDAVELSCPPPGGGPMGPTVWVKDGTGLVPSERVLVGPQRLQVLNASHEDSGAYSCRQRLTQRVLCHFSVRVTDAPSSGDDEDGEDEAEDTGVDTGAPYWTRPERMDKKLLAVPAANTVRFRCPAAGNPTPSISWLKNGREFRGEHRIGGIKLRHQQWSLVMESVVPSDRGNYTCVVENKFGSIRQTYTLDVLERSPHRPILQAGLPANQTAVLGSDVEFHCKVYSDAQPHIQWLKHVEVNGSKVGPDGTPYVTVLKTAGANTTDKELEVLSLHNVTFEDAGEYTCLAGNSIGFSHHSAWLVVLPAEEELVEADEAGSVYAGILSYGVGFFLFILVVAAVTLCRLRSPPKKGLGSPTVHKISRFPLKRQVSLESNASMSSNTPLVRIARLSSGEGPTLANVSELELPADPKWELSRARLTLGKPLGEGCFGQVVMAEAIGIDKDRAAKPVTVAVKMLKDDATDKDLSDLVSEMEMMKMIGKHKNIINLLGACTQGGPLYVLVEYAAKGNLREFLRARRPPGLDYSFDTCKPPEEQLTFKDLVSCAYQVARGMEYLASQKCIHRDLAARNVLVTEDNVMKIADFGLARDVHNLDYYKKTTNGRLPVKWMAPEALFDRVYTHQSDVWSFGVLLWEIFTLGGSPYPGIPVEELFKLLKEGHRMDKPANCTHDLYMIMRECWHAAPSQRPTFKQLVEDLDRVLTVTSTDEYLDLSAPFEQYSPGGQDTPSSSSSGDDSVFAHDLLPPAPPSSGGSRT
Sequence of TGFBR1 (P36897 34-503): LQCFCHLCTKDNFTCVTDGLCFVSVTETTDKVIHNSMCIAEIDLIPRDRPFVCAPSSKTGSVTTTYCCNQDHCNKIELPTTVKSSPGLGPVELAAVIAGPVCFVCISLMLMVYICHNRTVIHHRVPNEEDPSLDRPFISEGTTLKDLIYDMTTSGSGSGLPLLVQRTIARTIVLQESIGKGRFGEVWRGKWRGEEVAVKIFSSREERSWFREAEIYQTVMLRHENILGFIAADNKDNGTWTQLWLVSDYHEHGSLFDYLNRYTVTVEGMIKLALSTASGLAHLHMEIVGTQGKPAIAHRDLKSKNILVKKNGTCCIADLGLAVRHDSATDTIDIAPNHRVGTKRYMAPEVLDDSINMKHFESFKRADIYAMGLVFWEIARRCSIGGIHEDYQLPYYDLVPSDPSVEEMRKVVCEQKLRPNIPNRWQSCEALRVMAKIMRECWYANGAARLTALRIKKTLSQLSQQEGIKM
Sequence of PIM2 (Q9P1W9 whole entry): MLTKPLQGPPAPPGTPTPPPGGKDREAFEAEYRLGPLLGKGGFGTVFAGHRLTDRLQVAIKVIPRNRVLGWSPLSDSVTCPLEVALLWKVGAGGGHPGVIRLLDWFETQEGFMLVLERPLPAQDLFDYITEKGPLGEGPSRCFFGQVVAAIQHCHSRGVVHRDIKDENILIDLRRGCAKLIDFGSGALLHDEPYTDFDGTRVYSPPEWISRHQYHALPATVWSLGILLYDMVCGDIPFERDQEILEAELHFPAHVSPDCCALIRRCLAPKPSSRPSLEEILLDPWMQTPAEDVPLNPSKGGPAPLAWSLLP
Sequence of FAK (Q05397 whole entry): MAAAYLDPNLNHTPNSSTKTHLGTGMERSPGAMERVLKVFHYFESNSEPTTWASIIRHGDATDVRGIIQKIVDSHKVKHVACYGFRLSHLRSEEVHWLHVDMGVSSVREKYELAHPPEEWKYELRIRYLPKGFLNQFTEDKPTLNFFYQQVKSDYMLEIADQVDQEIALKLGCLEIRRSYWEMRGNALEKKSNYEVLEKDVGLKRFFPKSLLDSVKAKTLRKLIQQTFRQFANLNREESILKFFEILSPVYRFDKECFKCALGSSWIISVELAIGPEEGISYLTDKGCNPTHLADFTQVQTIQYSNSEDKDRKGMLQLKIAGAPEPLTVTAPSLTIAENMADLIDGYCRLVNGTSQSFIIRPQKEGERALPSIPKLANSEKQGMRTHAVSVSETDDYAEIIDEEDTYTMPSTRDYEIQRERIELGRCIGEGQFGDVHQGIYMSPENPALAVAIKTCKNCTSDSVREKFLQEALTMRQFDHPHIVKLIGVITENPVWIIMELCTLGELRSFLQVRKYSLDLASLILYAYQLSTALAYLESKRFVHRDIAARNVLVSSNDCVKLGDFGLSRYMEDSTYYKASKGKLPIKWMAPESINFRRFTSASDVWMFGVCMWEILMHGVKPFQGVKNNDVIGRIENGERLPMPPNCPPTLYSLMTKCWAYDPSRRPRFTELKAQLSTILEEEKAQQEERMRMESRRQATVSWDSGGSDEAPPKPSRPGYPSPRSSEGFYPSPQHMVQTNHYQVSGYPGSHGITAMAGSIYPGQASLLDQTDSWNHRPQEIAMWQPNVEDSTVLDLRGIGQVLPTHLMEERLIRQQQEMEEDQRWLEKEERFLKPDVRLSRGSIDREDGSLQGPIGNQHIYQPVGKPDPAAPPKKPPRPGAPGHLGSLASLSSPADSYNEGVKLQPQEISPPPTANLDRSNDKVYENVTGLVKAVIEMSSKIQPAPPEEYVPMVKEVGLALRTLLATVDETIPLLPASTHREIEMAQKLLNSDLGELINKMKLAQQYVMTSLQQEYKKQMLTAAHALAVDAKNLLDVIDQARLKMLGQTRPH
Sequence of PDGFRA (P16234 24-1089): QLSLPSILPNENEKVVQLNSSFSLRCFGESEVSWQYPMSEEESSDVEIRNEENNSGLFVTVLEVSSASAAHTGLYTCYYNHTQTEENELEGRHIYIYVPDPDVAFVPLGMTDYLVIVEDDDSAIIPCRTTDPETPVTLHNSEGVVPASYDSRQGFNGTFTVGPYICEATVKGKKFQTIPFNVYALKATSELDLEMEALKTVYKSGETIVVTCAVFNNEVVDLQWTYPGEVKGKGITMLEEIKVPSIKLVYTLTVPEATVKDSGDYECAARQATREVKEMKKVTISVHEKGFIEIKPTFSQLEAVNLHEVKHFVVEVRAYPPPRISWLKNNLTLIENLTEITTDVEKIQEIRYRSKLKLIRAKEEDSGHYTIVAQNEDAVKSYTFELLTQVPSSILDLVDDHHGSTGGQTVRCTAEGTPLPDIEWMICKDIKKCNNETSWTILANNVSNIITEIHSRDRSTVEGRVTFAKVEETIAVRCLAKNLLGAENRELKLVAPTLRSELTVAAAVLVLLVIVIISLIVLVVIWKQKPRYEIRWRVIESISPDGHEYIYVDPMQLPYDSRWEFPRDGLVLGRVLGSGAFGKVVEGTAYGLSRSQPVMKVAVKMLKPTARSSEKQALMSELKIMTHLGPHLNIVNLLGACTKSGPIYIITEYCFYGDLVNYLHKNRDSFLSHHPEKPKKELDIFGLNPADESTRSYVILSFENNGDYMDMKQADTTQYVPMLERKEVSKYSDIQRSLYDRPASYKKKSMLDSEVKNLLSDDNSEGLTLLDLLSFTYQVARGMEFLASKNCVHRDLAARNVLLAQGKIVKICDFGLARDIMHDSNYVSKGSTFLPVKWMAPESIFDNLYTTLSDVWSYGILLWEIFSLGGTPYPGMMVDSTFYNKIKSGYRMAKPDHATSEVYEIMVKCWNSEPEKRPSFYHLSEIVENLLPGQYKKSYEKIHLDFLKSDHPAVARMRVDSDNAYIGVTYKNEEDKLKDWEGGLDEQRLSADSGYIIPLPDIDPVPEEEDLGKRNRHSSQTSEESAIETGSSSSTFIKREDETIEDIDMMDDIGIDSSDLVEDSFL

Consider `C=C1CCCCCCCCCC(CO)C1=O` (stereo not shown) [EP009, 2-(Hydroxymethyl)-12-methylenecyclododecanone], for which the “Kinase Activity (% of Control)” value was 76 % of Control in assay [1]; 100 % of Control in [2]; 75 % of Control in assay [3]; 100 % of Control in [4]; 100 % of Control in assay [6]; 69 % of Control in [8]. The “Kinase Activity (% of Control)” value was 90 % of Control in [9]; 100 % of Control in [10]; 100 % of Control in assay [11]; 100 % of Control in [12]; 99 % of Control in assay [13]. In addition, the “inhibition against the kinases tested” value in assay [5] is on record as under 50%. Moreover, in assay [7], the IκBα phosphorylation status entry is on record as “No statistically significant change”.
